US12128010B2, “Semifluorinated compounds and their compositions” (NOVALIQ GMBH, priority 2015, dated 2024)
Entries after “also recorded” stand apart in the source; their conditions may differ.

Key:
[1] = Evaporation time of mixtures; format: physicochemical; settings: FIG. 1, in words
Description: The evaporation time of mixtures of the semifluorinated alkane CF3(CF2)5(CH2)7CH3 and CF3(CF2)5—CH(CH3)—(CH2)5—CH3 was evaluated. A droplet of 10 μL volume of each mixture was placed on a glass surface at room temperature. Time until evaporation was recorded by video-monitoring.

[2] = Differential Scanning Calorimetry of mixtures; format: physicochemical
Description: Differential Scanning calorimetry (DSC 1, Mettler Toledo, Greifensee, Switzerland) is used to characterize structure and phase behavior of mixtures of CF3(CF2)5—CH(CH3)—(CH2)5—CH3 and CF3(CF2)5(CH2)7CH3. DSC was employed to obtain data on transitions by temperature rising scans with heating rate of 1° C./min. Sealed standard aluminum crucibles (40 μl, Mettler Toledo) were used.

[3] = Refractive index of mixtures; format: physicochemical; settings: FIG. 2, in words
Description: The refractive index of the mixtures was also determined. For topically applied ophthalmic compositions, the refractive index of the composition should preferably similar, or adapted to that of the eye and lens, for instance as close to that of physiological tear fluid as possible. If the refractive index of a composition is not similar, when applied to the surface of the eye, a patient may experience blurring or impaired vision. […] By varying the amount of this semifluorinated alkane in the mixture, it may also be feasible to adapt the composition to the requirements of the intended ophthalmic use, for instance adapting to a patient with an altered tear fluid composition and refractive index, due to an eye condition and/or age.

Rabbit corneas = assay: Ex Vivo Eye Irritation Test (EVEIT), corneal healing
Description: Anim., 2008 (36) p 25-32; and N. Schrage et al, Graefes Arch Clin Exp Ophthalmol 2012 (250), 1330-1340).
Method. Rabbit corneas were obtained and placed in an artificial anterior ocular chamber which was gently filled with serum-free minimal essential medium (Eagle's MEM) containing Earle's salts and HEPES buffer for nutrition. The medium was contstantly replenished by a micropump to imitate the physiological condition of the eye. The culture chambers were held at 32° C. under normal air without supplementary CO2 and >95% relative humidity. Five corneas per test substance (n=5) were used except for the postive control with which two corneas (n=2) were tested.
After 12 h of stabilization in the culture chamber, the corneas were evaluated by microscopy and corneas with intact epithelium and without opacities were selected. Four small abrasions (2.3-4.3 mm^2) were applied to the surface of the selected corneas with a cornea drill. All defects were monitored by fluorescein sodium staining (0.17% aq. solution) and microscopy.
The test substances were administered one hour after induction of the corneal erosion and were applied six times daily onto the apex of the corneas (30-50 μL every four hours). A soft-tipped cannula, with continuous suction was placed on the lowest part of the corneoscleral region within the culturing chamber to remove any excess fluid. Experiments were terminated after 3 days of application. Biomicroscopic images of the corneas were taken daily to document the corneal healing process using a phase-contrast microscope integrated camera (KY-F1030U, JVC, (Bad Vilbel, DE) mounted on a Z16 APO Microscope (Wetzlar, DE)). All defects were monitored by fluorescein sodium stains (0.17% aq. solution) with yellow green fluorescence indicating the areas of epithelial defects. Erosion sizes were determined using a software tool of the microscope (DISKUS). At the end of the 3 days, the experiment was terminated and all corneas were fixed in 3.7% formaldehyde and stained with a hematoxylin-eosin dye for microscopic evaluation. To monitor the metabolic activity of the cornea, glucose and lactate concentrations were photometrically quantified in the outflow medium from the artificial anterior chambers.

[4] = hematoxylin-eosin stained corneas after 3 days of application

CCCCCCC(C)C(F)(F)C(F)(F)C(F)(F)C(F)(F)C(F)(F)C(F)(F)F (centres unmarked) [CF3—(CF2)5—CH(CH3)—(CH2)5—CH3, 2-perfluorohexyloctane]
effect of increasing percentage on evaporation time of the mixtures [1]: decreases the evaporation time | effect on melting enthalpy when present in a mixture with F6H8 ([2]; in words): decreased | effect on melting temperature when present in a mixture with F6H8 ([2]; in words): significant reduction in the melting temperature | effect of increased content on refractive index of the mixtures [3]: increasing refractive index value

CCCCCCCCC(F)(F)C(F)(F)C(F)(F)C(F)(F)C(F)(F)C(F)(F)F [Composition 0, 1-perfluorohexyloctane]
Low temperature transition Endset ([2]; DSC, heating rate 1° C./min): −38.32 °C | Low temperature transition Onset ([2]; DSC, heating rate 1° C./min): −45.47 °C | Low temperature transition Peak ([2]; DSC, heating rate 1° C./min): −40.37 °C | Low temperature transition ΔH ([2]; DSC, heating rate 1° C./min): -0.69 J/g | Melting transition Endset ([2]; DSC, heating rate 1° C./min): −2.14 °C | Melting transition Onset ([2]; DSC, heating rate 1° C./min): −6.33 °C | Melting transition Peak ([2]; DSC, heating rate 1° C./min): −4.53 °C | Melting transition ΔH ([2]; DSC, heating rate 1° C./min, label = wt % CF3—(CF2)5—CH(CH3)—(CH2)5—CH3 in mixture with CF3(CF2)5(CH2)7CH3): -36.57 J/g

benzalkonium chloride [0.01% BAC]
Corneal Erosion Size, Mean (SD) (Rabbit corneas; Day 0 (before application)): 11.57 (0.86) mm^2 | Corneal Erosion Size, Mean (SD) (Rabbit corneas; Day 1, applied six times daily, 30-50 μL): 5.91 (0.28) mm^2 | Corneal Erosion Size, Mean (SD) (Rabbit corneas; Day 2, applied six times daily, 30-50 μL): 8.74 (7.6) mm^2 | Corneal Erosion Size, Mean (SD) (Rabbit corneas; Day 3, applied six times daily, 30-50 μL): 17.46 (6.43) mm^2 | Day 3 Histological Observations: Descemet membrane and endothelium (Rabbit corneas; [4]): Descemet membrane is present with intact endothelium | Day 3 Histological Observations: epithelium, stroma, corneal structure (Rabbit corneas; [4]): Severe alterations of the superficial cornea with disintegration of; also recorded: Reduced staining of background substance indicating chemical | Day 3 Histological Observations: keratocytes (Rabbit corneas; [4]): Severe reduction in number of keratocyte cells which also appear | course of the induced epithelial erosions/lesions (Rabbit corneas; over the three days of the experiment, in words): progressive increase
